pIC50: −log10 of the molar value. In brackets after ≈: the same amount, converted by molar mass.
Assays:
[1] = Stability in human plasma; assay type: in vitro ADME; details: both sexes, read-out: Plasma stability h (t1/2)
Method: Incubations were performed in duplicate in Eppendorf tubes. The plasma (mouse plasma, rat plasma (mixed gender), human (mixed gender, all lithium heparine, from Sera Laboratories International) or cell culture medium (differenciation medium: DMEM (Life Technologies, Ref 41965), 0.4 % gentamicine, 10 % FCS (Lonza, Ref DE14-801F) or proliferation medium: DMEM (Life Technologies, Ref 41965), 0.4 % gentamicine, 2 % horse serum (Gbco, Ref16050) was pre-incubated 5 min at 37 °C before the addition of test compounds to a final concentration of 10 μM (1% DMSO maximum). At the defined time points, 50 μl from each tube were removed to another tube containing 450 μl of cold CH3CN+ internal standard (1 μM). After centrifugation (10 min at 10,000 r.p.m.), supernatants are analysed. The degradation half-life (t1/2) values were calculated as t1/2=0.693/k where k is the first-order degradation rate constant. The degradation rate constant (k) was estimated by one-phase exponential decay nonlinear regression analysis of the degradation time course data using Xlfit software (version 2.1.2 or higher) from IDBS.Ltd.

[2] = target: T1, hIDE (Homo sapiens, UniProt P14735); experiment: In vitro hIDE inhibition of insulin hydrolysis; assay type: biochemical; details: substrate native insulin; means of two experiments minimum, s.d.±10%; read-out: Selectivity IC50 hIDE
T1 construct: made in house
T1 sequence (P14735 1-1019): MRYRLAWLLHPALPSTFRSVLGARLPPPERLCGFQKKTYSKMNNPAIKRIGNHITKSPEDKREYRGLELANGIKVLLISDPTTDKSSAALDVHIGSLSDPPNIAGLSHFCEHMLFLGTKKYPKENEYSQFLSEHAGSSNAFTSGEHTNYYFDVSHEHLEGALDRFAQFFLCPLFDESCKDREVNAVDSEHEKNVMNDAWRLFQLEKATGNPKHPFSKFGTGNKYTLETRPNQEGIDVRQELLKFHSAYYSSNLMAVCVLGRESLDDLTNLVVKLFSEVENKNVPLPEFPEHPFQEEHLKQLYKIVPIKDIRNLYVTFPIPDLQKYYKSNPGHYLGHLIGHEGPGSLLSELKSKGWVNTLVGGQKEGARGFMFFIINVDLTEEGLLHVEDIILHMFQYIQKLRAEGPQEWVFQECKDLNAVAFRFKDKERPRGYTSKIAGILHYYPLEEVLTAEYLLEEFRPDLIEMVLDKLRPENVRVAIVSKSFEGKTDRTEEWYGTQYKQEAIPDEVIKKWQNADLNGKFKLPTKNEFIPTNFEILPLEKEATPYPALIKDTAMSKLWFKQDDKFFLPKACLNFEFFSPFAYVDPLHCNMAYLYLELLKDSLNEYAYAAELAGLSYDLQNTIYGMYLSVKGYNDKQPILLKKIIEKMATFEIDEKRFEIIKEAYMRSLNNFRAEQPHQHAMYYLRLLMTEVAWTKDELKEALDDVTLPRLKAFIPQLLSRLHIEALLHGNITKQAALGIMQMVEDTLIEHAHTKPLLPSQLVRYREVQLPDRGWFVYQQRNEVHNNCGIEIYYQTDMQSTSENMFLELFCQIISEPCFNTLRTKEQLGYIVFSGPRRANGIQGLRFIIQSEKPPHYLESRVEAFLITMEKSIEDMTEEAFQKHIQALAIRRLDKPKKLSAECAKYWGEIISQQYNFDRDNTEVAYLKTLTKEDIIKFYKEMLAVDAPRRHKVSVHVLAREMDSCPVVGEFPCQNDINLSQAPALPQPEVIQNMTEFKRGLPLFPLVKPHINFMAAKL
Method: The enzymatic activity of hIDE was assayed quantifying the amount of insulin (Actrapid) at the end of the reaction. The quantity of insulin was determined using a Luminex kit (HMHMAG-34K, Millipore). 20 μl of WT IDE in Hepes buffer (50 mM with 100 mM NaCl, pH 7.4) at 1 μg ml^−1 were pre-incubated 10 min at ambient temperature with 20 μl of test compound or vehicle in 96-well microtiter plates (dark, non-binding surface). The reaction was then started by the addition of 40 μl of insulin at 40 nM. The final concentration of hIDE and substrate was 0.25 μg ml^−1 and 20 nM, respectively. Incubations were performed at ambient temperature for 10 min. The reaction was then stopped by addition of 80 μl of 200 mM EDTA. The samples were diluted by a factor of 3, and 15 μl were transferred to 96-well microtiter plates (dark, clear bottom, non-binding surface) containing 15 μl of assay buffer (from Luminex Kit). Fifteen microlitre of insulin magnetic beads were added. Incubation was performed during 16–18 h at 4 °C under agitation. Wells were washed three times and 30 μl of hormone panel antibodies were added. The samples were incubated 30 min at ambient temperature under agitation. 30 μl of strepdavidin-phycoerythrin were added. Incubation was performed 30 min at ambient temperature under agitation. Wells were washed three times and 80 μl of drive fluid were added. The plate was then read with the MagPix apparatus. Data analysis was performed using Xlfit v 5.0 and GraphPad Prism v 4.0. Nonlinear curve fitting and statistical analysis was done using equation 1: […]
where A is minimum value of y; B is range of y; C is the IC50 value and D is slope factor.

[3] = target: T1, hIDE; experiment: Small-angle X-ray scattering (SAXS) of hIDE conformation
Method: SAXS data were collected at the APS 18-ID (BioCAT) with the Mar 165 CCD detector at room temperature (24 °C). The incident X-ray wavelength is 1.033 Å. hIDE was purified as described before. After 2 gel-filtration, hIDE was concentrated and dialysis against 20 mM Hepes, pH 7.2, 100 mM NaCl. […] The data reducing and all data processing were carried out using ATSAS. P(r) function was calculated with GNOM[44], and SAXS data fitting was performed with CRYSOL[45].

[4] = Solubility in PBS pH 7.4; assay type: physicochemical; details: aqueous buffer, kinetic from dmso stock
Method: Ten microlitre of a 10 mM solution in DMSO of the compound are diluted either in 490 μl of PBS pH 7.4 or in organic solvent MeOH in a 700 μl-microtube (in triplicate). The tubes are gently shaken 24 h at room temperature, then centrifuged for 5 min at 4,000 r.p.m. The mixtures are filtered over 0.45 μm filters (Millex-LH Millipore). Twenty microlitre of sample are diluted in 180 μl of MeOH. The solubility is determined by the ratio of mass signal area PBS/ organic solvent. Forty microlitre of a 10 mM solution in DMSO of the compound were diluted in 1.960 ml of a 1/1 octanol /PBS at pH 7.4 mixture. The mixture was gently shaken 2 h at room temperature. Twenty microlitre of each phase was diluted in 480 μl of MeOH and analysed by LC–MS. Each compound is tested in triplicate. Log D was determined as the logarithm of the ratio of concentration of product in octanol and PBS respectively, determined by mass signals.

Q: What does the source list for `O=C(C[C@@H](Cc1ccc2ccccc2c1)n1cc(CNC(=O)c2ccc(F)cc2)nn1)NO` [Compound 1]?
A: half-life at 10 μM [1]: > 24 h; pIC50 [2]: 7.22; radius of gyration (Rg) of IDE with compound ([3]; 53.1 Å without compound): 47.6 Å; Dmax of IDE with compound ([3]; 180 Å without compound): 160 Å; fraction of IDE in the open conformation with compound ([3]; ∼63% open in the absence of compound, fit of SAXS profile): ~16%; solubility at 24 h [4]: 58 µM (≈ 26 µg/mL)

From publication PMC4580987, “Catalytic site inhibition of insulin-degrading enzyme by a small molecule induces glucose intolerance in mice” (Nature Communications, 2015)
